For assay [1], the target named is T1, GST-tagged Tnks-2 (873-1166 aa) (Homo sapiens, UniProt Q9H2K2).
T1 construct: GST-tagged Tnks-2 (873-1166 aa, prepared in-house); made in house
In words: TNKS2 activity ELISA (autoparsylation assay). It is filed as biochemical. The protocol: (§1) Description of the TNKS1 and TNKS2 ELISA Assay
(§2) Biochemical Activity Testing of TNKS 1 and 2: Activity ELISA (Autoparsylation Assay)
(§3) For analysis of autoparsylation activity of TNKS 1 and 2 an activity ELISA iss performed: In the first step GST tagged TNKS is captured on a Glutathione coated plate. Then the activity assay with biotinylated NAD is performed in the absence/presence of the compounds. During the enzymatic reaction GST tagged TNKS transfers biotinylated ADP-ribose to itself from biotinylated NAD as co-substrate. For the detection streptavidin-HRP conjugate is added that binds to the biotinylated TNKS and is thereby captured to the plates. The amount of biotinylated resp. autoparsylated TNKS is detected with a luminescence substrate for HRP. The level of the luminescence signal correlates directly with the amount of autoparsylated TNKS and therefore with activity of TNKS.
(§4) The activity ELISA is performed in 384 well Glutathione coated microtiter plates (Express capture Glutathione coated plate, Biocat, Heidelberg, Germany). The plates are pre-equilibrated with PBS. Then the plates are incubated with 50 μl 20 ng/well GST-tagged Tnks-1 (1023-1327 aa, prepared in-house), respectively GST-tagged Tnks-2 (873-1166 aa, prepared in-house) in assay buffer (50 mM HEPES, 4 mM Mg-chloride, 0.05% Pluronic F-68, 2 mM DTT, pH 7.7) overnight at 4° C. The plates are washed 3 times with PBS-Tween-20. The wells are blocked by incubation at room temperature for 20 minutes with 50 μl blocking buffer (PBS, 0.05% Tween-20, 0.5% BSA). Afterwards the plates are washed 3 times with PBS-Tween-20. The enzymatic reaction is performed in 50 μl reaction solution (50 mM HEPES, 4 mM Mg-chloride, 0.05% Pluronic F-68, 1.4 mM DTT, 0.5% DMSO, pH 7.7) with 10 μM bio-NAD (Biolog, Life science Inst., Bremen, Germany) as co-substrate in the absence or presence of the test compound (10 dilution concentrations) for 1 hour at 30° C. The reaction is stopped by 3 times washing with PBS-Tween20. For the detection 50 μl of 20 ng/μl Streptavidin, HRP conjugate (MoBiTec, Göttingen, Germany) in PBS/0.05% Tween-20/0.01% BSA are added and the plates are incubated for 30 minutes at room temperature. After three times washing with PBS-Tween-20 50 μl of SuperSignal ELISA Femto Maximum sensitivity substrate solution (ThermoFisherScientific (Pierce), Bonn, Germany) are added. Following a 1 minute incubation at room temperature luminescence signals are measured with an Envision multimode reader (Perkin Elmer LAS Germany GmbH) at 700 nm. The full value used is the inhibitor-free reaction. The pharmacological zero value used is XAV-939 (Tocris) in a final concentration of 5 μM. The inhibitory values (IC50) are determined using either the program Symyx Assay Explorer® or Condosseo® from GeneData.

Assay [2] has as its system Tankyrase. Description: Cellular inhibition of Tankyrase: Axin2 level in DLD1 cells (Luminex). It counts as cell-based. The note with it: 24 hours, Axin2 increase, read-out: EC50 [M] TNKS cellular assay. The protocol:
Measurement of Cellular Inhibition of Tankyrase
Since Tankyrases have been described to modulate cellular level of Axin2 (Huang et al., 2009; Nature) the increase of Axin2 level is used as read-out for determination of cellular inhibition of Tankyrases in a Luminex based assay.
Cells of the colon carcinoma cell line DLD1 are plated in 96 well plates with 1.5×10^4 cells per well. Next day, cells are treated with a serial dilution of test compound in seven steps as triplicates with a final DMSO concentration of 0.3%. After 24 hours, cells are lysed in lysis buffer (20 mM Tris/HCl pH 8.0, 150 mM NaCl, 1% NP40, 10% Glycerol) and lysates are cleared by centrifugation through a 96 well filter plate (0.65 μm). Axin2 protein is isolated from cell lysates by incubation with a monoclonal anti-Axin2 antibody (R&D Systems #MAB6078) that is bound to fluorescent carboxybeads. Then, bound Axin2 is specifically detected with a polyclonal anti-Axin2 antibody (Cell Signaling #2151) and an appropriate PE-fluorescent secondary antibody. The amount of isolated Axin2 protein is determined in a Luminex^200 machine (Luminex Corporation) according to the manufacturer's instruction by counting 100 events per well. Inhibition of Tankyrase by test compounds results in higher levels of Axin2 which directly correlates with an increase of detectable fluorescence. As controls cells are treated with solvent alone (neutral control) and with a Tankyrase reference inhibitor IWR-2 (3E-06 M) which refers as control for maximum increase of Axin2. For analysis, the obtained data are normalized against the untreated solvent control and fitted for determination of the EC50 values using the Assay Explorer software (Accelrys).

In assay [3] the target is T2, GST-tagged Tnks-1 (1023-1327 aa) (Homo sapiens, UniProt O95271).
T2 construct: GST-tagged Tnks-1 (1023-1327 aa, prepared in-house); made in house
T2 sequence (O95271 1023-1327): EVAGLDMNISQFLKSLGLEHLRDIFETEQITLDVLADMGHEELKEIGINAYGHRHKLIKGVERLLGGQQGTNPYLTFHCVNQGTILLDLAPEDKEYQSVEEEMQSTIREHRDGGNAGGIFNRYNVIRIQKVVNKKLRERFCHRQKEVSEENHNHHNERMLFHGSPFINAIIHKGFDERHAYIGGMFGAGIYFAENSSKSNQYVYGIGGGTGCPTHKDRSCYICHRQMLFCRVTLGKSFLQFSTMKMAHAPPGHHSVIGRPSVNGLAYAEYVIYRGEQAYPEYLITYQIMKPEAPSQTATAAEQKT
In words: TNKS1 activity ELISA (autoparsylation assay). It counts as biochemical. The protocol: as §1, §2, §3, §4
(In general: An ELISA detects its analyte on a solid surface through an enzyme-linked reagent.)

T1 sequence (Q9H2K2 873-1166): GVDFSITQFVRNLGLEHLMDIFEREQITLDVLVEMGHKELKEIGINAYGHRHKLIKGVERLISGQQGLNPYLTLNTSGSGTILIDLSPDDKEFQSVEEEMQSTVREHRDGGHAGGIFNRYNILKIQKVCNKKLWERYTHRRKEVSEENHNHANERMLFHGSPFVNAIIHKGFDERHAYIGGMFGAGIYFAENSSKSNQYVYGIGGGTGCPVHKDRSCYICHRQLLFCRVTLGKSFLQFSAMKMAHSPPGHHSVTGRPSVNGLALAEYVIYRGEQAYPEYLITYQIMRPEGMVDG

As to `CN(C(=O)N1CCC(C(=O)c2ccc(-c3cnn(CCN4CCCC4)c3)cc2)CC1)c1ccc(-c2cnn(CCN3CCCC3)c2)cc1` [Compound A37, 4-{4-[1-(2-pyrrolidin-1-yl-ethyl)-1H-pyrazol-4-yl]-benzoyl}-piperidine-1-carboxylic acid methyl-{4-[1-(2-pyrrolidin-1-yl-ethyl)-1H-pyrazol-4-yl]-phenyl}-amide], the IC50 in assay [1] and in assay [3] was under 300 nM each time. In addition, in assay [2], the EC50 is 3e-07 to 3e-06 M.

As for `CCN(C(=O)N1CCC(C(=O)c2ccc(OC)nc2)CC1)c1ccc(OC)cc1` [Compound A43, N-ethyl-N-(4-methoxyphenyl)-4-(6-methoxypyridine-3-carbonyl)piperidine-1-carboxamide], the IC50 in assay [1] and in assay [3] was under 300 nM each time. In addition, the EC50 in assay [2] is under 3e-07 M.

Consider `COc1ccc(N(C)C(=O)N2CCC(C(=O)c3ccccc3)CC2)cn1` [Compound A44, 4-benzoyl-N-(6-methoxy-3-pyridyl)-N-methyl-piperidine-1-carboxamide], for which the IC50 in assay [1] and in assay [3] was under 300 nM throughout. Further, the EC50 in assay [2] fell in the range of 3e-07 to 3e-06 M.

Consider `CCn1cc(-c2ccc(C(=O)C3CCN(C(=O)N(C)c4ccc(OC)nc4)CC3)cc2)cn1` [Compound A48, 4-[4-(1-ethylpyrazol-4-yl)benzoyl]-N-(6-methoxy-3-pyridyl)-N-methyl-piperidine-1-carboxamide], for which the IC50 in assay [1] and in assay [3] was under 300 nM in each case. Further, the EC50 in assay [2] was 3e-07 to 3e-06 M.

On to `COc1ccc(N(C)C(=O)N2CCC(C(=O)c3ccc(OC)c(C)c3)CC2)cn1` [Compound A52, 4-(4-methoxy-3-methyl-benzoyl)-N-(6-methoxy-3-pyridyl)-N-methyl-piperidine-1-carboxamide], for which the IC50 in assay [1] and in assay [3] was under 300 nM each time. In assay [2], the EC50 is under 3e-07 M.

Take `COc1ccc(N(C)C(=O)N2CCC(C(=O)c3ccc(OC)nc3)CC2)cc1` [Compound A53, N-(4-methoxyphenyl)-4-(6-methoxypyridine-3-carbonyl)-N-methyl-piperidine-1-carboxamide]: the IC50 in assay [1] and in assay [3] was under 300 nM in each case. Also, in assay [2], the EC50 fell in the range of 3e-07 to 3e-06 M.

With `CCn1cc(-c2ccc(C(=O)C3CCN(C(=O)N(C)c4ccc(-c5cnn(CC)c5)cc4)CC3)cc2)cn1` [Compound A57, 4-[4-(1-Ethyl-1H-pyrazol-4-yl)-benzoyl]-piperidine-1-carboxylic acid [4-(1-ethyl-1H-pyrazol-4-yl)-phenyl]-methyl-amide], the IC50 in assay [1] and in assay [3] was under 300 nM throughout. Moreover, the EC50 in assay [2] was under 3e-07 M.

What is called IC50 is the concentration at which inhibition is half-maximal. Low values mean greater potency, high ones weaker potency. Broadly, the EC50 is the concentration at which the effect is half-maximal.

The values above are taken from patent US9770446B2, “Piperidine urea derivatives” (MERCK PATENT GMBH, priority 2013, dated 2017).
